≈ marks a conversion by molar mass, not a printed value. Calls of active or inactive are those of the source. The rule behind the calls is not given here.
Tests used:
[1] = biological target: T1, Cholesteryl ester transfer protein (Homo sapiens, UniProt P11597); assay: Inhibition of human recombinant CETP assessed as reduction in [3H]cholesteryl ester transfer from [3H]CE-HDL to biotinylated LDL by scintillation proximity assay
T1 sequence (P11597 whole entry): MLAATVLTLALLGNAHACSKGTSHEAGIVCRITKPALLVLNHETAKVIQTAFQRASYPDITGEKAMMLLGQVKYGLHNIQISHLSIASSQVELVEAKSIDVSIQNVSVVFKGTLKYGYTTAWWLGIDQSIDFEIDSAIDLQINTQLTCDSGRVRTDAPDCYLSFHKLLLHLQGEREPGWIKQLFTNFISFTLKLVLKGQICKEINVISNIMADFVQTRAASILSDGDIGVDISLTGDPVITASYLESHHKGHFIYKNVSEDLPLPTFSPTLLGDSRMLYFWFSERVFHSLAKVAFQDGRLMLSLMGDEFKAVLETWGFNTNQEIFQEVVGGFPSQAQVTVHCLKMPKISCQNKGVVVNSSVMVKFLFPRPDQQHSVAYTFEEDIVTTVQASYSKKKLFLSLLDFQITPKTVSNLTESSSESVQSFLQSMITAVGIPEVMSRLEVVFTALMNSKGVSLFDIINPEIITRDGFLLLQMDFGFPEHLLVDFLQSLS

[2] = biological target: T1, Cholesteryl ester transfer protein; assay: Inhibition of CETP in human whole plasma assessed as reduction in [3H]cholesteryl ester transfer from [3H]CE-HDL to LDL/VLDL; format: cell-free
[3] = Aqueous solubility of compound; format: physicochemical; conditions: buffer
[4] = Metabolic stability in rat liver microsomes assessed as compound remaining at 3 uM after 10 mins by UV absorbance method; format: ADME; conditions: read-out: Stability
[5] = Metabolic stability in human liver microsomes assessed as compound remaining at 3 uM after 10 mins by UV absorbance method; format: ADME; conditions: read-out: Stability
[6] = Metabolic stability in mouse liver microsomes assessed as compound remaining at 3 uM after 10 mins by UV absorbance method; format: ADME; conditions: read-out: Stability
[7] = Plasma concentration in dual transgenic mouse expressing human CETP/ApoB-100 at 30 mg/kg, po measured at 2 hrs post dose; format: ADME, organism-based
[8] = AUC (0 to 8 hrs) in dual transgenic mouse plasma expressing human CETP/ApoB-100 at 30 mg/kg, po; format: ADME, organism-based; set-up: dose 30 mg/kg, time < 8 hr, route oral
[9] = Plasma concentration in dual transgenic mouse expressing human CETP/ApoB-100 at 30 mg/kg, po measured at 8 hrs post dose; format: ADME, organism-based
[10] = Plasma concentration in dual transgenic mouse expressing human CETP/ApoB-100 at 30 mg/kg, po measured at 4 hrs post dose; format: ADME, organism-based
[11] = biological target: T2, Voltage-gated inwardly rectifying potassium channel KCNH2 (Homo sapiens, UniProt Q12809); assay: Inhibition of recombinant human ERG flux expressed in HEK293 cells by patch clamp assay; format: cell-based
T2 sequence (Q12809 whole entry): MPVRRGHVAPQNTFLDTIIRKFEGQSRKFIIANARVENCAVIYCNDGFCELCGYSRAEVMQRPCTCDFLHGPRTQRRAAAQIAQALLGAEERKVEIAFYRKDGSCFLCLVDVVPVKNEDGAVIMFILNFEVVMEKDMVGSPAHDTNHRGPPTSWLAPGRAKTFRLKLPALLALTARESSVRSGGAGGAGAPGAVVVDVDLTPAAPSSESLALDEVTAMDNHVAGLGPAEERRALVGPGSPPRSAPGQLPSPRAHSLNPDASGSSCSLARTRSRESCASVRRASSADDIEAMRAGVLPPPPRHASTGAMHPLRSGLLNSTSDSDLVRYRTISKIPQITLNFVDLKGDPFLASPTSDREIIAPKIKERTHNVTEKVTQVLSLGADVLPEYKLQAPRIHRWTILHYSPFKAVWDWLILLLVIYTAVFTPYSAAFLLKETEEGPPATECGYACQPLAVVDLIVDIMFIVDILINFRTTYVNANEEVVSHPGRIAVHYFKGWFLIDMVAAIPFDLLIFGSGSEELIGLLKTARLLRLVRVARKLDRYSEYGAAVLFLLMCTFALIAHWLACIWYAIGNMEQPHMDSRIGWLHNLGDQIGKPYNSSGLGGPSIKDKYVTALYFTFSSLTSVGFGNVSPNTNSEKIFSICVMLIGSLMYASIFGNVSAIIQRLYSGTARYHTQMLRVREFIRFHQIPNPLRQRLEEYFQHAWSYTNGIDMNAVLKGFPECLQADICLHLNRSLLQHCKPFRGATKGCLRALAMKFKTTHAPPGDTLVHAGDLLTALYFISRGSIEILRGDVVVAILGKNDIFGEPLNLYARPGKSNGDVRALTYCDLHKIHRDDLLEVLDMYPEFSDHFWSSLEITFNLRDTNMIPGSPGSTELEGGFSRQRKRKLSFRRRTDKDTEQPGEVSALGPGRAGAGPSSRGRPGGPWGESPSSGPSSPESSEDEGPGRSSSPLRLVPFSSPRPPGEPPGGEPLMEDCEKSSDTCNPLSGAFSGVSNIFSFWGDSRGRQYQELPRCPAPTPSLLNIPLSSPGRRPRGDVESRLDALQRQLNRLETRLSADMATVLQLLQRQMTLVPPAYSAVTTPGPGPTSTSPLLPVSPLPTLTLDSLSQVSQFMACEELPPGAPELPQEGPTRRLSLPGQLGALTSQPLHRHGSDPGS

[12] = Plasma concentration in dual transgenic mouse expressing human CETP/ApoB-100 at 1 mg/kg, po measured at 4 hrs post dose; format: ADME, organism-based
[13] = Plasma concentration in dual transgenic mouse expressing human CETP/ApoB-100 at 1 mg/kg, po measured at 8 hrs post dose; format: ADME, organism-based
[14] = Ratio of plasma concentration in dual transgenic mouse expressing human CETP/ApoB-100 at 10 mg/kg, po measured at 2 hrs post dose to IC50 for CETP in human whole plasma; format: ADME, organism-based; conditions: in vivo
[15] = Ratio of plasma concentration in dual transgenic mouse expressing human CETP/ApoB-100 at 10 mg/kg, po measured at 4 hrs post dose to IC50 for CETP in human whole plasma; format: ADME, organism-based; conditions: in vivo
[16] = biological target: T2, Voltage-gated inwardly rectifying potassium channel KCNH2; assay: Inhibition of recombinant human ERG expressed in HEK293 cells assessed as inhibition of peak tail current by patch clamp assay; format: cell-based
[17] = Plasma concentration in dual transgenic mouse expressing human CETP/ApoB-100 at 10 mg/kg, po measured at 4 hrs post dose; format: ADME, organism-based
[18] = Plasma concentration in dual transgenic mouse expressing human CETP/ApoB-100 at 10 mg/kg, po measured at 8 hrs post dose; format: ADME, organism-based
Mus musculus [19] = assay: In vivo inhibition of human CETP-mediated [3H]cholesteryl ester transfer in human CETP expressed transgenic mouse coexpressing ApoB-100 at 3 to 10 mg/kg, po measured at 8 hrs post dose relative to control; format: functional
[20] = AUC (0 to 8 hrs) in dual transgenic mouse plasma expressing human CETP/ApoB-100 at 10 mg/kg, po; format: ADME, organism-based; set-up: time < 8 hr, dose 10 mg/kg, route oral
[21] = Plasma concentration in dual transgenic mouse expressing human CETP/ApoB-100 at 3 mg/kg, po measured at 4 hrs post dose; format: ADME, organism-based
[22] = Plasma concentration in dual transgenic mouse expressing human CETP/ApoB-100 at 3 mg/kg, po measured at 8 hrs post dose; format: ADME, organism-based
[23] = AUC (0 to 8 hrs) in dual transgenic mouse plasma expressing human CETP/ApoB-100 at 1 mg/kg, po; format: ADME, organism-based; set-up: time < 8 hr, dose 1 mg/kg, route oral
[24] = Plasma concentration in dual transgenic mouse expressing human CETP/ApoB-100 at 10 mg/kg, po measured at 2 hrs post dose; format: ADME, organism-based
[25] = Plasma concentration in dual transgenic mouse expressing human CETP/ApoB-100 at 3 mg/kg, po measured at 2 hrs post dose; format: ADME, organism-based
[26] = Plasma concentration in dual transgenic mouse expressing human CETP/ApoB-100 at 1 mg/kg, po measured at 2 hrs post dose; format: ADME, organism-based
[27] = AUC (0 to 8 hrs) in dual transgenic mouse plasma expressing human CETP/ApoB-100 at 3 mg/kg, po; format: ADME, organism-based; set-up: dose 3 mg/kg, time < 8 hr, route oral
[28] = Ratio of plasma concentration in dual transgenic mouse expressing human CETP/ApoB-100 at 30 mg/kg, po measured at 4 hrs post dose to IC50 for CETP in human whole plasma; format: ADME, organism-based; conditions: in vivo
Oryctolagus cuniculus [29] = assay: Cardiotoxicity in rabbit assessed as QT prolongation up to 10 mg/kg by electrophysiology method; format: toxicity, organism-based; conditions: in vivo
Oryctolagus cuniculus [30] = assay: Cardiotoxicity in rabbit assessed as changes in QTcf interval up to 10 mg/kg by electrophysiology method; format: toxicity, organism-based; conditions: in vivo
hERG (KCNH2) [31] = biological target: T3, hERG (KCNH2) (Homo sapiens, UniProt Q12809); assay: Inhibition of recombinant human ERG expressed in HEK293 cells assessed as inhibition of peak tail current at 3 uM by patch clamp assay relative to control; format: cell-based; conditions: HEK293 cells expressing recombinant human ERG
T3 sequence (Q12809 whole entry): as above

Oryctolagus cuniculus [32] = assay: Cardiotoxicity in rabbit assessed as QT prolongation at 30 mg/kg by electrophysiology method; format: toxicity, organism-based; conditions: in vivo
Oryctolagus cuniculus [33] = assay: Cardiotoxicity in rabbit assessed as QRS prolongation at 30 mg/kg by electrophysiology method; format: toxicity, organism-based; conditions: in vivo
Oryctolagus cuniculus [34] = assay: Cardiotoxicity in rabbit assessed as changes in QT interval up to 10 mg/kg by electrophysiology method; format: toxicity, organism-based; conditions: in vivo
Mus musculus [35] = assay: In vivo inhibition of human CETP-mediated [3H]cholesteryl ester transfer in human CETP expressed transgenic mouse coexpressing ApoB-100 at 30 mg/kg, po measured at 2 to 8 hrs post dose; format: functional, organism-based
[36] = Ratio of plasma concentration in dual transgenic mouse expressing human CETP/ApoB-100 at 30 mg/kg, po measured at 2 hrs post dose to IC50 for CETP in human whole plasma; format: ADME, organism-based; conditions: in vivo
hERG (KCNH2) [37] = biological target: T3, hERG (KCNH2); assay: Inhibition of recombinant human ERG expressed in HEK293 cells assessed as inhibition of peak tail current at 1 uM by patch clamp assay relative to control; format: cell-based; conditions: HEK293 cells expressing recombinant human ERG
Oryctolagus cuniculus [38] = assay: Cardiotoxicity in rabbit assessed as changes in QTcv interval up to 10 mg/kg by electrophysiology method; format: toxicity, organism-based; conditions: in vivo

Row | SMILES | IC50 [1] [nM] | IC50 [2] [nM] | solubility [3] [µg/mL] | remaining at 10 min, 3 µM [4] [%] | remaining at 10 min, 3 µM [5] [%] | remaining at 10 min, 3 µM [6] [%] | other results
1 | O=C(CN[C@@](Cc1ccccc1)(c1cc(F)cc(C(F)(F)F)c1)c1ccc(Cl)cn1)CC(F)(F)F | 641 | 30000 | < 1 | – | – | – | –
2 | C[C@@H](O)CN[C@@](Cc1ccccc1)(c1cc(F)cc(C(F)(F)F)c1)c1ccc(Cl)cn1 | 520 | 32000 | < 1 | – | – | – | –
3 | OC[C@@H](O)CN[C@@](Cc1ccccc1)(c1cc(F)cc(C(F)(F)F)c1)c1ccc(Cl)cn1 | 3100 | 98000 | 37 (≈ 78.9 µM) | – | – | – | –
4 | O=C(N[C@@](Cc1ccccc1)(c1cc(F)cc(C(F)(F)F)c1)c1ccc(Cl)cn1)c1ccc(F)c(C(F)(F)F)c1 | 52 | 7000 | < 1 | 97 | 93 | 100 | –
5 | OC(CN[C@@](Cc1ccccc1)(c1cc(F)cc(OC(F)(F)C(F)F)c1)c1ccc(Cl)cn1)CC(F)(F)F (stereo partly specified) | 1.5 | 600 | – | 87 | 100 | 88 | concentration at 2 h [7]: 5400 nM; AUC(0-t) at 8 h [8]: 18.1 µM·h; concentration at 8 h [9]: 490 nM; concentration at 4 h [10]: 2600 nM
6 | CC(C)Oc1cc([C@@](Cc2ccccc2)(NC[C@@H](O)CC(F)(F)F)c2cc(F)cc(OC(F)(F)C(F)F)c2)ccc1F | 2.5 | 169 | – | – | – | – | IC50 [11]: 23000 nM
7 | CO[C@H](CN[C@@](Cc1ccccc1)(c1cc(F)cc(C(F)(F)F)c1)c1ccc(Cl)cn1)C(F)(F)F | 253 | 48000 | < 1 | – | – | – | –
8 | CC(=O)O[C@H](CN[C@@](Cc1ccccc1)(c1cc(F)cc(C(F)(F)F)c1)c1ccc(Cl)cn1)C(F)(F)F | 826 | 100000 | < 1 | – | – | – | –
9 | O[C@H](CN[C@@](Cc1ccccc1)(c1cc(F)cc(C(F)(F)F)c1)c1ccc(Cl)cn1)C(F)(F)F | 22 | 1600 | < 1 | 88 | 100 | 95 | –
10 | C[C@H](O)CN[C@@](Cc1ccccc1)(c1cc(F)cc(C(F)(F)F)c1)c1ccc(Cl)cn1 | 334 | 20000 | < 1 | – | – | – | –
11 | OC[C@H](O)CN[C@@](Cc1ccccc1)(c1cc(F)cc(C(F)(F)F)c1)c1ccc(Cl)cn1 | 8530 | – | 44 (≈ 93.8 µM) | – | – | – | –
12 | CC(C)Oc1cc([C@@](Cc2ccccc2)(NC[C@H](O)C(F)(F)F)c2cc(F)cc(OC(F)(F)C(F)F)c2)ccc1F | 2.9 | 238 | – | – | – | – | IC50 [11]: 12000 nM
13 | CC(C)Oc1cc([C@@](Cc2ccccc2)(NC[C@H](O)CC(F)(F)F)c2cc(F)cc(OC(F)(F)C(F)F)c2)ccc1F | 1.3 | 49 | – | 83 | 83 | 85 | concentration at 4 h [12]: 54 nM; concentration at 8 h [13]: 28 nM; Ratio [14]: 19; Ratio [15]: 5; IC50 [16]: 25600 nM; IC50 [11]: 28000 nM; concentration at 4 h [17]: 250 nM; concentration at 8 h [18]: 92 nM; inhibition (INH) (Mus musculus [19]): 50%; AUC(0-t) at 8 h [20]: 2.66 µM·h; concentration at 4 h [21]: 89 nM; concentration at 8 h [22]: 45 nM; AUC(0-t) at 8 h [23]: 0.543 µM·h; concentration at 2 h [24]: 960 nM; concentration at 2 h [25]: 380 nM; concentration at 2 h [26]: 180 nM; AUC(0-t) at 8 h [27]: 1.04 µM·h
14 | CC(C)Oc1cc([C@@](Cc2ccccc2)(NC[C@@H](O)C(F)(F)F)c2cc(F)cc(OC(F)(F)C(F)F)c2)ccc1F | 1.8 | 55 | – | 83 | 83 | 85 | IC50 [11]: 21000 nM
15 | O[C@H](CN[C@@](Cc1ccccc1)(c1cc(F)cc(OC(F)(F)C(F)F)c1)c1ccc(Cl)cn1)C(F)(F)F | 14 | 900 | – | 84 | 100 | 88 | concentration at 2 h [7]: 5200 nM; Ratio [28]: 3.3; AUC(0-t) at 8 h [8]: 26.9 µM·h; Activity (Oryctolagus cuniculus [29]): Non-toxic; Activity (Oryctolagus cuniculus [30]): Non-toxic; concentration at 8 h [9]: 1300 nM; inhibition at 3 µM (hERG (KCNH2) [31]): 87%; Activity (Oryctolagus cuniculus [32]): Toxic; Activity (Oryctolagus cuniculus [33]): Toxic; Activity (Oryctolagus cuniculus [34]): Non-toxic; inhibition (Mus musculus [35]): Active; Ratio [36]: 5.7; inhibition at 1 µM (hERG (KCNH2) [37]): 43%; Activity (Oryctolagus cuniculus [38]): Non-toxic; concentration at 4 h [10]: 3000 nM
16 | OC(CN[C@@](Cc1ccccc1)(c1cc(F)cc(C(F)(F)F)c1)c1ccc(Cl)cn1)CC(F)(F)F (stereo partly specified) | 9 | 1200 | < 1 | 69 | 93 | 73 | –

Reference: ChEMBL document CHEMBL3813624, “Discovery of hydroxyl 1,2-diphenylethanamine analogs as potent cholesterol ester transfer protein inhibitors” (Bioorg Med Chem Lett, 2016)
